What is called IC50 is the midpoint of a concentration-inhibition curve. The low end stands for higher potency, the high end for lower potency.

The target of one experiment is T1, P2X purinoceptor 3 (Rattus norvegicus, UniProt P49654).
T1 sequence (P49654 whole entry): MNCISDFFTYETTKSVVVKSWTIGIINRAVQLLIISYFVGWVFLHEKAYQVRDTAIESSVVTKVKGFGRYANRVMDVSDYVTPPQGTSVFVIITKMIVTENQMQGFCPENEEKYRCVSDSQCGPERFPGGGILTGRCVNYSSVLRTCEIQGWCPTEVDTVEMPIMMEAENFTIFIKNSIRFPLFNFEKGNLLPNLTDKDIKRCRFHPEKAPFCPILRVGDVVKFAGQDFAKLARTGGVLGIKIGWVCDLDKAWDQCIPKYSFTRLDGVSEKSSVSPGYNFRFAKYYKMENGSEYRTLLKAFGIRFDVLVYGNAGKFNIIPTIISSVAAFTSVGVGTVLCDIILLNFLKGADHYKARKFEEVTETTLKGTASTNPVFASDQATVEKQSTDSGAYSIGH
Briefly: Antagonist activity at rat P2X3 receptor expressed in CHO cells. In kind it is functional, cell-based.

Experiment [1] concerns the target T2, P2X2/P2X3 heterotrimeric receptor (Homo sapiens, UniProt P56373+Q9UBL9).
T2 sequence (Q9UBL9 whole entry): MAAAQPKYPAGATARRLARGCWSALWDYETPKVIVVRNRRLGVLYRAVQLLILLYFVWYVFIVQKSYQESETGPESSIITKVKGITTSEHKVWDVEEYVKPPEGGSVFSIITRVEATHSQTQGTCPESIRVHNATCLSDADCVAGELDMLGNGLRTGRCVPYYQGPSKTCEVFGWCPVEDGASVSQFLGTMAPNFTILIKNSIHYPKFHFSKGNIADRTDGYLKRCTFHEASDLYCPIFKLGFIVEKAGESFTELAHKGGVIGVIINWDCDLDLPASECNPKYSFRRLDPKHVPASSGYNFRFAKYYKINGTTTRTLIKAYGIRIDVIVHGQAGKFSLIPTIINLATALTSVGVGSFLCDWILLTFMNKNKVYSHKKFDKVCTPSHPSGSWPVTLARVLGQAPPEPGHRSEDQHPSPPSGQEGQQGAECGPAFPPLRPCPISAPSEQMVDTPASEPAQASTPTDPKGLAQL
T2 sequence (P56373 whole entry): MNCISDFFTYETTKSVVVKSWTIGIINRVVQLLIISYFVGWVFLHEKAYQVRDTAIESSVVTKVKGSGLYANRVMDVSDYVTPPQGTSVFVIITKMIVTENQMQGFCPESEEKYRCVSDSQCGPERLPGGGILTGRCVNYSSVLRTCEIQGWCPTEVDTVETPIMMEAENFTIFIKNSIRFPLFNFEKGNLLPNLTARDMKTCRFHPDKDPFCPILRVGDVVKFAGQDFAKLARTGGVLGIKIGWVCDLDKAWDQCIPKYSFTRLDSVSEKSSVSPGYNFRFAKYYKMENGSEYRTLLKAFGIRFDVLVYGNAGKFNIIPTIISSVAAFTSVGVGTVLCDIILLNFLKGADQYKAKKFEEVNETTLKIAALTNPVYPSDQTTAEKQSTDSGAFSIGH
Briefly: Antagonist activity at human P2X2/P2X3 receptor expressed in human 1321N1C cells. In kind it is functional, cell-based.

Consider `Cc1c(C(=O)NC(C)CN2CCN(c3ncccn3)CC2)c(-c2ccccc2)nn1-c1ccccc1` (stereo not given), for which the IC50 (against P2X purinoceptor 3; in experiment [1]) was greater than 10000 nM in each case.
Turning to `CCCc1nc(-c2ccc(F)cc2)oc1C(=O)N[C@H](C)CN1CCN(c2ccncn2)CC1`, the IC50 on P2X purinoceptor 3 is 1260 nM; in experiment [1] it was greater than 10000 nM.
The matching figures for `CCCc1nc(-c2ccc(F)cc2)oc1C(=O)N[C@H](C)CN1CCN(C(=O)NC)CC1`: greater than 10000 nM and greater than 10000 nM.
The matching figures for `CCCc1nc(-c2ccc(F)cc2)oc1C(=O)N[C@H](C)CN1CCN(C(=O)c2ccco2)CC1`: 2510 nM and greater than 10000 nM.
For the compound `CCCc1nc(-c2ccc(F)cc2)oc1C(=O)NC(C)CN1CCN(c2ccccn2)CC1` (racemic), the IC50 (at P2X purinoceptor 3; in experiment [1]) was greater than 10000 nM throughout.
As to `CC(=O)N1CCN(CC(C)NC(=O)c2cc3c(-c4ccccc4F)nn(C)c3s2)CC1` (stereo not given), on P2X purinoceptor 3, the IC50 was 39.8 nM.
The compound `CCCc1nc(-c2ccc(F)cc2)oc1COC(C)CN1CCN(c2ncccn2)CC1` (stereo not given) showed an IC50 against P2X purinoceptor 3 greater than 10000 nM.
For the compound `CCCc1nc(-c2ccc(F)cc2)oc1C(=O)N[C@H](C)CN1CCN(c2ccccn2)CC1`, the IC50 is 1580 nM at P2X purinoceptor 3 and greater than 10000 nM in experiment [1].
For `CCn1nc(-c2ccccc2)c2cc(C(=O)NC(C)CN3CCN(c4ncccn4)CC3)sc21` (stereo not given), the half-inhibitory concentration (IC50) against P2X purinoceptor 3 is 501 nM.
For `CCCc1nc(-c2ccc(F)cc2)oc1C(=O)NCCN1CCN(c2ncccn2)CC1`, the IC50 against P2X purinoceptor 3 was greater than 10000 nM.
As to `CCCc1nc(-c2ccc(F)cc2)oc1CNC(C)CN1CCN(c2ncccn2)CC1` (stereo not given), the IC50 at P2X purinoceptor 3 is greater than 10000 nM.
Consider `CCCc1nc(-c2ccc(F)cc2)oc1C(=O)N[C@H](C)CN1CCN(C(=O)OCC)CC1`, for which the IC50 (against P2X purinoceptor 3; in experiment [1]) was greater than 10000 nM throughout.
On to `CC(CN1CCN(c2ncccn2)CC1)NC(=O)c1cc(-c2ccccc2)nc(-c2ccccc2)c1` (stereo not given), for which the IC50 against P2X purinoceptor 3 was 1260 nM; in experiment [1], greater than 10000 nM.
Take `CC(CN1CCN(c2ncccn2)CC1)NC(=O)c1sc(-c2ccccc2)nc1-c1ccccc1` (stereo not given): the IC50 (against P2X purinoceptor 3; in experiment [1]) was greater than 10000 nM each time.
As for `CCCc1cc(C(=O)NC(C)CN2CCN(c3ncccn3)CC2)cc(-c2ccc(F)cc2)c1` (stereo not given), the IC50 was 501 nM against P2X purinoceptor 3 and greater than 10000 nM in experiment [1].
As for `CC(CN1CCN(c2ncccn2)CC1)NC(=O)c1nc(-c2ccccc2)oc1-c1ccccc1` (stereo not given), the results for the IC50 (against P2X purinoceptor 3; in experiment [1]) were 3980 nM and greater than 10000 nM, respectively.
As to `CC(=O)N1CCN(CC(C)NC(=O)c2cc3c(-c4ccccc4)nn(C)c3s2)CC1` (stereo not given), the IC50 against P2X purinoceptor 3 is 100 nM.
Turning to `CC(CN1CCN(c2ncccn2)CC1)NC(=O)c1cc(-c2ccccc2)nn1-c1ccccc1` (stereo not given), the half-maximal inhibitory concentration (IC50) on P2X purinoceptor 3 is 1000 nM; in experiment [1], greater than 10000 nM.
As for `CCCc1nc(-c2ccc(F)cc2)oc1C(=O)N[C@H](C)CN1CCN(S(C)(=O)=O)CC1`, the IC50 (against P2X purinoceptor 3; in experiment [1]) was greater than 10000 nM each time.
For the compound `CC(CN1CCN(c2ncccn2)CC1)NC(=O)c1cc(Br)cc(-c2ccc(F)cc2)c1` (stereo not given), the IC50 is 501 nM on P2X purinoceptor 3 and greater than 10000 nM in experiment [1].
On P2X purinoceptor 3, `CC(CN1CCN(c2ncccn2)CC1)NC(=O)c1cc2c(-c3ccccc3)nn(-c3ccccc3)c2s1` (stereo not given) showed an IC50 greater than 10000 nM.
Take `CC(CN1CCN(c2ncccn2)CC1)NC(=O)c1nc(-c2ccccc2)cc(-c2ccccc2)n1` (stereo not given): the IC50 is 5010 nM on P2X purinoceptor 3 and greater than 10000 nM in experiment [1].
In the case of `CC(CN1CCN(c2ncccn2)CC1)NC(=O)c1cc(-c2ccccc2)oc1-c1ccccc1` (stereo not given), the IC50 was 2000 nM at P2X purinoceptor 3 and greater than 10000 nM in experiment [1].
In turn, `CCCc1nc(-c2ccc(F)cc2)oc1C(=O)NC(C)CN1CCCN(c2ncccn2)CC1` (stereo not given) gave an IC50 against P2X purinoceptor 3 of 2510 nM. That is a single-digit micromolar value.
Regarding `CCCc1nc(-c2ccc(F)cc2)oc1C(=O)N[C@H](C)CN1CCN(c2ncccn2)CC1`, the figures for the IC50 (against P2X purinoceptor 3; in experiment [1]) were 50.1 nM and greater than 10000 nM, respectively.
With `CC(CN1CCN(c2ncccn2)CC1)NC(=O)c1cc2c(-c3ccccc3F)nn(C)c2s1` (stereo not given), the IC50 against P2X purinoceptor 3 was 63.1 nM.
The same measure, in the same setting: the figure for `Cc1nn(-c2ccccc2)c2sc(C(=O)NC(C)CN3CCN(c4ncccn4)CC3)cc12` (stereo not given) is 10000 nM.
For `CC(=O)N1CCN(CC(C)NC(=O)c2cc3c(-c4ccc(C)cc4)nn(C)c3s2)CC1` (stereo not given), 39.8 nM corresponded to half-maximal inhibition on P2X purinoceptor 3 (IC50).
Take `CCCc1nc(-c2ccc(F)cc2)oc1C(=O)N[C@H](C)CN1CCN(C(C)=O)CC1`: the IC50 at P2X purinoceptor 3 is 398 nM; in experiment [1] it was greater than 10000 nM.
The compound `CCCc1nc(-c2ccc(F)cc2)oc1C(=O)NC(C)(C)CN1CCN(c2ncccn2)CC1` had an IC50 on P2X purinoceptor 3 greater than 10000 nM.
As for `CCCc1nc(-c2ccc(F)cc2)oc1C(=O)NC(C)CN1CCN(C(C)=S)CC1` (racemic), the IC50 against P2X purinoceptor 3 is 100 nM; in experiment [1], greater than 10000 nM.
In turn, `CCCc1nc(-c2ccc(F)cc2)oc1C(=O)N(C)CCN1CCN(c2ncccn2)CC1` gave an IC50 at P2X purinoceptor 3 greater than 10000 nM.
For the compound `CCCc1nc(-c2ccc(F)cc2)oc1C(=O)N[C@@H](C)CN1CCN(c2ncccn2)CC1`, the IC50 on P2X purinoceptor 3 is 2000 nM; in experiment [1] it was greater than 10000 nM.
The matching figures for `CC(CN1CCN(c2ncccn2)CC1)NC(=O)c1oc(-c2ccccc2)nc1-c1ccccc1` (stereo not given): 1260 nM and greater than 10000 nM.
Take `CC(CN1CCN(c2ncccn2)CC1)NC(=O)c1cc2c(-c3ccccc3)nn(C)c2o1` (stereo not given): at P2X purinoceptor 3, the IC50 is greater than 10000 nM.
In the case of `CC(CN1CCN(c2ncccn2)CC1)NC(=O)c1cc2c(-c3ccccc3)nn(C)c2s1` (stereo not given), the figures for the IC50 (at P2X purinoceptor 3; in experiment [1]) were 200 nM and greater than 10000 nM, respectively.
Regarding `CC(CN1CCN(c2ncccn2)CC1)NC(=O)c1cc(-c2ccccc2)n(-c2ccccc2)n1` (stereo not given), the IC50 against P2X purinoceptor 3 was 1260 nM; in experiment [1], greater than 10000 nM.
`CCCc1nc(-c2ccc(F)cc2)oc1C(=O)N[C@H](C)CN1CCN(C(=O)C2CC2)CC1`: the IC50 (at P2X purinoceptor 3; in experiment [1]) was greater than 10000 nM each time.
Consider `CCCc1nc(-c2ccc(F)cc2)oc1C(=O)N[C@H](C)CN1CCN(c2ccncc2)CC1`, for which the IC50 (on P2X purinoceptor 3; in experiment [1]) was greater than 10000 nM each time.
For the compound `CC(CN1CCN(c2ncccn2)CC1)NC(=O)c1cccc(-c2ccc(F)cc2)c1` (stereo not given), the figures for the IC50 (against P2X purinoceptor 3; in experiment [1]) were 126 nM and greater than 10000 nM, respectively.
For `Cc1ccccc1-c1nn(C)c2sc(C(=O)NC(C)CN3CCN(c4ncccn4)CC3)cc12` (stereo not given), on P2X purinoceptor 3, the IC50 is 2000 nM. In other words, the single-digit micromolar range.
Still for that read-out and setting: the figure for `CC(CN1CCN(c2ncccn2)CC1)N1Cc2c(c(-c3ccccc3)nn2-c2ccc(F)cc2)C1=O` (stereo not given) is greater than 10000 nM.
As for `Cc1nc(-c2ccccc2)oc1C(=O)NC(C)CN1CCN(c2ncccn2)CC1` (stereo not given), the IC50 on P2X purinoceptor 3 is 5010 nM; in experiment [1], greater than 10000 nM.
The like results for `CC(CN1CCN(c2ncccn2)CC1)NC(=O)c1cn(-c2ccccc2)nc1-c1ccccc1` (stereo not given) were, in that order, 1000 nM and greater than 10000 nM.
The matching figures for `CCCc1nc(-c2ccc(F)cc2)oc1C(=O)NC(C)CN1CCN(c2nccs2)CC1` (racemic): 631 nM and greater than 10000 nM.
The matching figures for `Cc1c(C(=O)NC(C)CN2CCN(c3ncccn3)CC2)cc(-c2ccccc2)n1-c1ccccc1` (stereo not given): 2000 nM and greater than 10000 nM.
On to `CC(CN1CCN(c2ncccn2)CC1)NC(=O)c1cc(-c2ccc(F)cc2)cc(-c2ccc(F)cc2)c1` (stereo not given), for which the IC50 is 398 nM at P2X purinoceptor 3 and greater than 10000 nM in experiment [1].
As for `CCCc1nc(-c2ccc(F)cc2)oc1C(=O)N[C@H](C)CN1CCN(c2cnccn2)CC1`, the figures for the IC50 (against P2X purinoceptor 3; in experiment [1]) were 501 nM and greater than 10000 nM, respectively.
`CCCc1nc(-c2ccc(F)cc2)oc1C(=O)NC(CC)CN1CCN(c2ncccn2)CC1` (stereo not given) gave an IC50 on P2X purinoceptor 3 greater than 10000 nM.
As to `CCCc1nc(-c2ccc(F)cc2)oc1C(=O)N[C@H](C)CN1CCN(C(N)=O)CC1`, the figures for the IC50 (against P2X purinoceptor 3; in experiment [1]) were 1000 nM and greater than 10000 nM, respectively.
The like results for `CC(CN1CCN(c2ncccn2)CC1)NC(=O)c1oc(-c2ccccc2)cc1-c1ccccc1` (stereo not given) were, in that order, 631 nM and greater than 10000 nM.

Values taken from ChEMBL document CHEMBL1159093, “Discovery and optimization of RO-85, a novel drug-like, potent, and selective P2X3 receptor antagonist” (Bioorg Med Chem Lett, 2010).
